Where “and” joins values, the source holds several entries; their conditions need not be identical. Identical values can stand only once.
Key:
pTau = assay: ELISA for pTau (S396) in brain lysates; type: in vivo, mouse; details: Tg4510 mice; vs DMSO
Method: All samples were analyzed in parallel using the same reagents. A total of 25 μl soluble protein was incubated overnight at 4°C with 25 μl of a mixed bead solution. After washing, samples were incubated with 25 μl detection antibody solution for 1.5 h at RT. Streptavidin–phycoerythrin (25 μl) was added to each well containing the 25 μl of detection antibody solution. Samples were then washed and suspended in 100 μl of sheath fluid. Samples were then run on MAGPIX with Xponent software. The median fluorescent intensity data were analyzed using a five-parameter logistic or spline curve-fitting method for calculating analyte concentrations in samples. Specific pTau ser396 (KHB7031; Invitrogen), aggregated Aβ (KHB3491; Thermo Fisher Scientific), and Aβ42 (KHB3442; Invitrogen) were performed according to manufacturer’s protocol on tissue soluble extracts from brain lysates in 1XSTEN buffer.

PIP5K1A = molecular target: T1, PIP5K1A (Homo sapiens, UniProt Q99755); assay: KINOMEscan competition binding, PIP5K1A; details: 10 µM compound
T1 construct: DNA label for qPCR read-out (T7 phage fusion or DNA tag); purchased Eurofins DiscoverX Corporation; host or cells: T7 phage in E. coli (BL21-derived) or HEK-293
Method: The KINOMEscan screening platform (Eurofins DiscoverX Corporation) was performed using active site-directed competition binding assay to quantitatively measure interactions between BK40143 and BK40197 and more than 450 human kinases and disease relevant mutant variants. […] Screening “hits” are identified by measuring the amount of kinase captured in test (BK40143 and BK40197) versus control samples by using a quantitative and ultra-sensitive qRT-PCR method that detects the associated DNA label. BK40143 and BK40197 were screened at 10 µM concentration, and results for primary screen binding interactions were reported as “% Ctrl” (POC), where lower numbers indicate stronger hits and calculated as follows: [test compound signal−positive control signal/negative control signal−positive control signal]×100
negative control = DMSO (100% Ctrl)
positive control = control compound (0% Ctrl)
Based on screening data from of profiled compounds, a proportional relationship between primary screening results and corresponding compound/target affinities can be described as binding constants (Kd values) for the indicated ranges of POC values with tighter binding (higher affinity) interactions associated with lower POC values and weaker binding (lower affinity) associated with higher POC values. Briefly, kinase-tagged T7 phage strains were grown in parallel in 24-well blocks in an E. coli host derived from the BL21 strain. E. coli were grown to log-phase and infected with T7 phage from a frozen stock (multiplicity of infection = 0.4) and incubated with shaking at 32°C until lysis (90–150 min). The lysates were centrifuged (6,000g) and filtered (0.2 μm) to remove cell debris. The remaining kinases were produced in HEK-293 cells and subsequently tagged with DNA for qRT-PCR detection. Streptavidin-coated magnetic beads were treated with biotinylated small molecule ligands for 30 min at RT to generate affinity resins for kinase assays. The liganded beads were blocked with excess biotin and washed with blocking buffer (1% BSA, 0.05% Tween 20, 1 mM DTT; SeaBlock [Pierce]) to remove unbound ligand and to reduce non-specific phage binding. Binding reactions were assembled by combining kinases, liganded affinity beads, and test compounds in 1x binding buffer (20% 0.17x PBS, 0.05% Tween 20, 6 mM DTT; SeaBlock). Test compounds were prepared as 100x stocks in 100% DMSO and directly diluted into the assay. All reactions were performed in polypropylene 384-well plates in a final volume of 0.02 ml. The assay plates were incubated at RT with shaking for 1 h and the affinity beads were washed with wash buffer (1x PBS, 0.05% Tween 20). […] The kinase concentration in the eluates was measured by qRT-PCR.

TgAPP mice = assay: Morris water maze, TgAPP mice; type: in vivo, mouse; set-up: Platform Distance: unit not given beside the values; Total Distance / Quad Time / Quad Distance / Trial 1 D4 / Trial 1 D4 AVG: unit not given here
Method: The Morris water maze was performed using a water bath 6 ft in diameter and filled with roughly 1 ft of water. The maze was divided into four quadrants, each with a visual stimulus positioned on the wall of the maze in the center of the quadrant arc. A clear platform was placed in one quadrant just beneath the surface of the water. Mice were then placed in a random non-platform quadrant and allowed to swim freely for 60 s (time was stopped and recorded if the mouse found the platform) before being placed on the platform for 15 s and returned to their cage. This was repeated for each of the three quadrants each day for 4 d. On the 5th d, the platform was removed and mice were placed in the quadrant opposite of where the platform had been and allowed to swim freely for 1 min before being returned to their cage. Time spent in the correct quadrant, latency to the platform, number of platform entries, and number of quadrant entries were recorded.

[1] = MWM Probe, single animal values, listed as 143
[2] = MWM Probe, single animal values, listed as 143, in s (unit assumed)
[3] = MWM training, Day 1, single animal values, listed as 143
[4] = MWM training, Day 2, single animal values, listed as 143
[5] = MWM training, Day 3, single animal values, listed as 143
[6] = MWM training, Day 4, single animal values, listed as 143

T1 sequence (Q99755 whole entry, the tested form may be a part): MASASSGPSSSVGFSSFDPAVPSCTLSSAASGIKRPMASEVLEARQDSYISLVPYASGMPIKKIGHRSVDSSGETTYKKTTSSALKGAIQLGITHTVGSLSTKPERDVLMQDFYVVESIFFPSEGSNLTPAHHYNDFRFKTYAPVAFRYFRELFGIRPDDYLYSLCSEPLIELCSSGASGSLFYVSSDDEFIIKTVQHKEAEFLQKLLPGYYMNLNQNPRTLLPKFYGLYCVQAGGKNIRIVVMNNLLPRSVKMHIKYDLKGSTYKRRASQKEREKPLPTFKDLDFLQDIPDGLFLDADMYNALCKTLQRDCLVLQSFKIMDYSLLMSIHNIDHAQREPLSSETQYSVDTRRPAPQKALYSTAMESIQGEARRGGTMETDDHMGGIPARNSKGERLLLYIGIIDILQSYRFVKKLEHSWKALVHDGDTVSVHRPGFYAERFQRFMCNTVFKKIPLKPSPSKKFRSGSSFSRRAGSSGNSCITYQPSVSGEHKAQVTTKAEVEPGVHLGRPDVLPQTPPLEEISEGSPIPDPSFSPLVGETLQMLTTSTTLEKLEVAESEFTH

## Cc1cccc(-c2cc3nccc(Nc4ccccc4)c3s2)c1 [BK40143]
pTau
  pTau (396) concentration in brain lysate (ELISA): significantly reduced Aβ and pTau (396) concentrations
PIP5K1A
  inhibition at 10 µM: 68%
PIP5K1A; lower = stronger binding, read-out: PIP5K1A %Ctrl @ 10000nM (POC)
  remaining binding at 10 µM: 32%
TgAPP mice; [1]
  Platform Distance: 0.467 and 0 and 0.449 and 0.195 and 0.184 and 0.331 and 0.254 and 0.89 and 0.328
  Platform Entries: 2 and 0 and 1 and 3
  Quad Distance: 5.043 and 5.446 and 3.201 and 3.934 and 3.492 and 4.145 and 2.65 and 6.181 and 3.964
  Quad Distance/Total: 0.3982 and 0.4027 and 0.1894 and 0.2536 and 0.5166 and 0.3292 and 0.1787 and 0.6061 and 0.2552
  Quad Entries: 10 and 8 and 9 and 3 and 6 and 13 and 7
  Quad Time: 22.9 and 26.8 and 10.6 and 13.3 and 30.6 and 20.6 and 8.1 and 36.5 and 15.3
  Total Distance: 12.663 and 13.525 and 16.899 and 15.514 and 6.759 and 12.592 and 14.83 and 10.786 and 10.198 and 15.531
TgAPP mice; MWM Probe, single animal values, listed as 143, in s
  Platform Latency: 7 and 60 and 18.8 and 32.8 and 39.9 and 29.7 and 3.9 and 19 and 17.1
TgAPP mice; [2]
  Platform Time: 1.2 and 0 and 1.4 and 0.6 and 0.8 and 5.3 and 1
  Quad Latency: 3 and 9.6 and 9.7 and 11.8 and 11.9 and 1 and 2.6 and 4.4 and 3.3
  Quad Time per Entry: 2.29 and 3.35 and 1.178 and 4.433 and 5.1 and 1.585 and 1.35 and 5.214 and 1.9125
TgAPP mice; MWM training, Day 1, group average
  Training Day 1 AVG: 51.6747
TgAPP mice; MWM training, Day 1, per-animal mean, listed as 143
  Training Day 1, mean of the three trials per animal: 53.4467 and 60 and 52.4667 and 29.4467 and 47.4833 and 58.2367 and 44.37 and 51.2967
TgAPP mice; [3]
  Training Day 1, trial 1: 40.34 and 60 and 56.02
  Training Day 1, trial 2: 60 and 37.4 and 16.7 and 22.45 and 54.71 and 56.59
  Training Day 1, trial 4: 60 and 11.64 and 20.5 and 33.89
TgAPP mice; MWM training, Day 2, group average
  Training Day 2 AVG: 35.2243
TgAPP mice; MWM training, Day 2, per-animal mean, listed as 143
  Training Day 2, mean of the three trials per animal: 48.7167 and 60 and 46.3833 and 23.8467 and 50.26 and 10.58 and 21.0467 and 41.7533 and 44.3033 and 5.353
TgAPP mice; [4]
  Training Day 2, trial 1: 60 and 20.69 and 7.13 and 14.22 and 47.78 and 22.96 and 5.56
  Training Day 2, trial 2: 60 and 19.15 and 23.07 and 4.53 and 36.28 and 34.46 and 5.16
  Training Day 2, trial 4: 26.15 and 60 and 27.78 and 30.78 and 20.08 and 12.64 and 43.02 and 49.95 and 5.34
TgAPP mice; MWM training, Day 3, group average
  Training Day 3 AVG: 21.9237
TgAPP mice; MWM training, Day 3, per-animal mean, listed as 143
  Training Day 3, mean of the three trials per animal: 16.49 and 19.77 and 22.4067 and 12.88 and 27.5233 and 6.497 and 51.49 and 20.0267 and 24.96 and 17.1933
TgAPP mice; [5]
  Training Day 3, trial 1: 5.91 and 7.09 and 10.32 and 15.21 and 29.09 and 11.01 and 60 and 23.94 and 21.27 and 31.09
  Training Day 3, trial 2: 2.72 and 9.21 and 18.46 and 13.59 and 19.08 and 3.47 and 34.47 and 8.82 and 17.41 and 5.46
  Training Day 3, trial 4: 40.84 and 43.01 and 38.44 and 9.84 and 34.4 and 5.01 and 60 and 27.32 and 36.2 and 15.03
TgAPP mice; MWM training, Day 4, Trial 1, group average
  Trial 1 D4 AVG: 16.872
TgAPP mice; MWM training, Day 4, group average
  Training Day 4 AVG: 25.5753
TgAPP mice; MWM training, Day 4, per-animal mean, listed as 143
  Training Day 4, mean of the three trials per animal: 15.5667 and 10.07 and 25.41 and 53.8233 and 37.2967 and 27.5933 and 22.5667 and 22.4167 and 10.7767 and 30.2333
TgAPP mice; [6]
  Training Day 4, trial 1: 12.47 and 11.66 and 37.95 and 60 and 26.19 and 10.69 and 29.33 and 43.27 and 12.2 and 43.31
  Training Day 4, trial 2: 3.58 and 4.64 and 11.51 and 49.87 and 42.77 and 12.09 and 15.35 and 10.7 and 9.45 and 8.76
  Training Day 4, trial 4: 30.65 and 13.91 and 26.77 and 51.6 and 42.93 and 60 and 23.02 and 13.28 and 10.68 and 38.63
TgAPP mice; TgAPP mice, 5 mg/kg IP, 6 wk, vs DMSO
  Morris water maze probe day (time in correct quadrant, quadrant entries, latency to platform): showed improvement on measures of memory on the probe day of the water maze
TgAPP mice; TgAPP mice, BK40143 5 mg/kg, BK40197 45 mg/kg IP, 6 wk, vs DMSO
  Morris water maze training trials: time to locate the platform: locate the platform significantly quicker on later training trials
